Source: paper PMC10388362, “Fluorescent Ligands Enable Target Engagement Studies for the Intracellular Allosteric Binding Site of the Chemokine Receptor CXCR2” (Journal of Medicinal Chemistry, 2023)

Columns and labels:
CCR7 = biological target: T1, CCR7 (Homo sapiens, UniProt P32248); experiment: Membrane-based NanoBRET saturation assay, selectivity (CCR7_GSSG_Nluc membranes)
T1 construct: host or cells: HEK293T; membrane preparation
T1 sequence (P32248 25-378): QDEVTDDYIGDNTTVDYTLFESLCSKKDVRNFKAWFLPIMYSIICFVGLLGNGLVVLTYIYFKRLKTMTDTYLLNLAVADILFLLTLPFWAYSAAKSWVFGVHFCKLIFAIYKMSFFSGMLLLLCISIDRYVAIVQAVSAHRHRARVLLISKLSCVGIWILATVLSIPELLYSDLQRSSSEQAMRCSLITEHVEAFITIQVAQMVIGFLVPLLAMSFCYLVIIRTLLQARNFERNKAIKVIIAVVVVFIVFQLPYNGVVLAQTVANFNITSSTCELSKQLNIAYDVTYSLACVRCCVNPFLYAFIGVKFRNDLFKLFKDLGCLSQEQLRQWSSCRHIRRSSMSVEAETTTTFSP
Procedure: (§1) For the establishment of our NanoBRET binding assay, we referred to a recently published protocol.[45] The fluorescent ligands (9a–c) were dissolved in DMSO (1 mM) and further diluted to varying concentrations in an assay buffer (50 mM Na2HPO4, 50 mM KH2PO4, pH 7.4, 1 mg/mL saponin, 5% FBS) and 5 μL of these dilutions were pipetted to a 384-well plate. To determine the total binding, 5 μL of the assay buffer was added to the corresponding wells, while 5 μL of a solution of 3 in the assay buffer (final assay concentration: 1 μM) was used to determine nonspecific binding. Then, 20 μL of the membrane preparations diluted in the assay buffer (2 μg total protein/well) were added and the plates were incubated for 90 min at 37 °C. Subsequently, 5 μL of a furimazine solution (Promega, Mannheim, Germany, final assay dilution: 1:5000) was added to each well (final assay volume: 35 μL) before measuring luminescence with a CLARIOstar microplate reader using 620/10 and 475/30 nm emission filters after 5 min of incubation in the dark. Bioluminescence resonance energy transfer (BRET) was determined as the ratio of acceptor fluorescence and donor luminescence. […] Specific binding signals were calculated as a difference of total and nonspecific binding. If required, netBRET values were calculated as the difference between total BRET values and the values obtained in the absence of a fluorescent ligand. […]

CXCR2 = biological target: T2, CXCR2 (Homo sapiens, UniProt P25025); experiment: Live cell NanoBRET saturation binding (HEK293T cells expressing CXCR2_Nluc)
T2 construct: Promega pNLF1-C (Nluc) #CXCR20TN00; host or cells: HEK293T, transient transfection (PEI)
T2 sequence (P25025 1-360): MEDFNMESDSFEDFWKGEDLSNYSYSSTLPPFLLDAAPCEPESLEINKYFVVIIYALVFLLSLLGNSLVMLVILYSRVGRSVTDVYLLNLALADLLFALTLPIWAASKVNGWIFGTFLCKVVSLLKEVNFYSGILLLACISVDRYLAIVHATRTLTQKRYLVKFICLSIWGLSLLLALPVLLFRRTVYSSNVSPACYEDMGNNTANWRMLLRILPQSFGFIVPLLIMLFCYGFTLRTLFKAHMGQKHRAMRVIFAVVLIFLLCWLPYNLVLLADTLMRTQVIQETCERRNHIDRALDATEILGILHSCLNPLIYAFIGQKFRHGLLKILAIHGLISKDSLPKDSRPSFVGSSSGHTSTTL
Procedure: HEK293T cells were transfected with the plasmid (5.5 μg) for CXCR2_Nluc using polyethylenimine (PEI) as transfection reagent (PEI/DNA ratio 3:1). After 24 h at 37 °C and 5% CO2, the cells were detached with DMEM and transferred to a white F-bottom 384-well plate (10,000 cells/well), which was coated with 5 μL/well poly-D-lysine (0.1 mg/mL, dissolved in water), and incubated for further 24 h at 37 °C and 5% CO2. Subsequently, the cells were washed with phosphate-buffered saline (Gibco DPBS, with CaCl2 and MgCl2). The assay medium (Gibco DMEM/F12, 15 mM HEPES, no phenol red supplemented with 5% FBS) was added and the cells were incubated at 37 °C for 30 min. […]
After 120 min of incubation at 37 °C, 5 μL of a furimazine solution (final assay dilution: 1:2500, diluted with assay medium) was added. Subsequent to a further incubation of 5 min in the dark at 37 °C, BRET ratios were measured with a CLARIOstar microplate reader using 620/10 and 475/30 nm emission filters. Total, nonspecific and specific binding, which was calculated as a difference of total and nonspecific binding, were analyzed using the algorithms for one-site saturation binding in PRISM9.5 (GraphPad). To determine the inhibition constants (Ki) of the potential competitors, data were normalized to total and nonspecific binding and analyzed using the one-site-fit Ki equation in PRISM9.5 (GraphPad).

CCR9 = biological target: T3, CCR9 (Homo sapiens, UniProt P51686); experiment: Membrane-based NanoBRET saturation assay, selectivity (CCR9_Nluc membranes)
T3 construct: host or cells: HEK293T; membrane preparation
T3 sequence (P51686 1-369): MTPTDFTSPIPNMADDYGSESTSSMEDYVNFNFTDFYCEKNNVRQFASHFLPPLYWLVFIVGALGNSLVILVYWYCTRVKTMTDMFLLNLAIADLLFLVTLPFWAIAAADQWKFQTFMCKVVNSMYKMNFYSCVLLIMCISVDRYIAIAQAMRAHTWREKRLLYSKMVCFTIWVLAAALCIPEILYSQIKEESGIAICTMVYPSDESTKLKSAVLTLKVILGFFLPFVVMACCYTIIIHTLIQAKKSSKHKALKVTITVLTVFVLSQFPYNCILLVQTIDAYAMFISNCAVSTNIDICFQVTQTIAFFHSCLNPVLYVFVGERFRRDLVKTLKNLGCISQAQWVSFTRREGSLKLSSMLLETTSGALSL
Procedure: as §1

Cc1ccc([C@H](Nc2c(Nc3cccc(C(=O)NCc4cn(CCOCCOCCOCCNC(=O)c5ccc(C(=O)[O-])c(-c6c7ccc(=[N+](C)C)cc-7oc7cc(N(C)C)ccc67)c5)nn4)c3O)c(=O)c2=O)C(C)(C)C)o1 [9a, (R)-4-((2-(2-(2-(2-(4-((3-((2-((2,2-Dimethyl-1-(5-methylfuran-2-yl)propyl)amino)-3,4-dioxocyclobut-1-en-1-yl)amino)-2-hydroxybenzamido)methyl)-1H-1,2,3-triazol-1-yl)ethoxy)ethoxy)ethoxy)ethyl)carbamoyl)-2-(6-(dimethylamino)-3-(dimethyliminio)-3H-xanthen-9-yl)benzoate]
binding to CCR7 (CCR7): no significant binding | Kd (CXCR2; live HEK293T cells transiently expressing CXCR2_Nluc, 37 °C, read-out: Kd (equilibrium saturation binding)): 0.25 ± 0.01 nM | passage of the cell membrane (CXCR2; live HEK293T cells, inferred from cellular binding): able to pass the cell membrane | binding to CCR9 (CCR9): no significant binding
